Source: patent US20080306044A1, “SPIROBENZOAZEPANES AS VASOPRESSIN ANTAGONISTS” (priority 2007, published 2008)

Legend:
human V1a receptor [1] = molecular target: T1, human V1a receptor (Homo sapiens, UniProt P37288); assay: In-vitro binding assay (3H-arginine-8-vasopressin), V1a; conditions: for IC50: membrane containing human V1a receptor, 3H-arginine-8-vasopressin 0.65-0.75 nM
T1 construct: expressed in transfected cells
Protocol: (§1) Assay buffer is 50 mM Tris-Cl, 5 mM MgCl2, 0.1% BSA (pH 7.5) containing 5 μg/mL of aprotinin, leupeptin, pepstatin, 50 μg/mL bacitracin, and 1 mM Pefabloc (4-(2-aminoethyl)-benzenesulfonyl fluoride, hydrochloride manufactured by Roche Diagnostics Corporation, Indianapolis, Ind. and distributed by Boehringer Mannheim). H3 vasopressin is ^3H-arginine-8-vasopressin (NEN Life Sciences, Boston, Mass.; 68.5 Ci/mmol, final concentration in assay is 0.65-0.75 nM). Into the wells of a 96-well round bottom polypropylene plates are added buffer, test compound, membrane (containing human V1a or V2 receptor), and H3 vasopressin. The reaction plates are allowed to sit at room temperature for one hour. The samples are filtered through Unifilter GF/C plates (PerkinElmer Life Sciences, Boston, Mass.) presoaked in 0.3 polyethyleneimine. The plates are washed 5 times with cold physiological saline containing 0.05% Tween 20. After drying, the bottom of the filter plates are sealed and 0.025 mL of Microscint-20 (Packard Instrument Co, Meriden, Conn.) is added to each filter. The top of the plate is sealed, and the plate is counted. Non-specific binding is determined by the addition of 1.25 μM arginine-8-vasopressin in those wells.
(§2) The % inhibition for the test results was calculated according to the formula: […]
Where an IC50 value was not obtained, the percent inhibition values are shown in parentheses (*) and were obtained at a test concentration of 0.2 μM.

human V2 receptor [2] = molecular target: T2, human V2 receptor (Homo sapiens, UniProt P30518); assay: In-vitro binding assay (3H-arginine-8-vasopressin), V2; conditions: for inhibition at 0.2 µM: test concentration of 0.2 μM, read-out: V2 binding percent inhibition (in parentheses, where an IC50 value was not obtained); for IC50: membrane containing human V2 receptor, 3H-arginine-8-vasopressin 0.65-0.75 nM
Protocol: as §1, with “H3 vasopressin is ^3H-arginine-8-vasopressin (NEN Life Sciences, Boston, Mass.; 68.5 Ci/mmol, final concentration in assay is 0.65-0.75 nM).” left out, “counted.” for “counted. Non-specific binding is determined by the addition of 1.25 μM arginine-8-vasopressin in those wells.”
as §2

human V1a receptor [3] = molecular target: T1, human V1a receptor; assay: cell-based
Protocol: The V1a receptor is a G-protein coupled receptor, which upon activation triggers an increase in intracellular calcium mobilization. To evaluate compounds for their functional V1a receptor activity, HEK-293 cells were transfected with the human V1a receptor (V1a-HEK cells). HEK-293 cells were grown in DMEM (Dulbecco's modified Eagle Media) supplemented with 10% FBS and glutamine. HEK-cells were passed biweekly by trypsinization and seeded into 96 well plates at 33,000 cells per well. HEK-293 cells were transfected with human V1a receptor DNA using DMRIE-C reagent from Life Technologies (Carlsbad, Calif.). Stable lines were generated by selecting cells grown in culture media containing geneticin. After growing in Packard Clear-View black 96 well plates for 4-6 days, V1a-HEK cells were loaded with the calcium-sensitive fluorescence dye, FLUO-3 AM. Changes in intracellular calcium mobilization were measured by quantitating intracellular fluorescence using FLIPR (Fluorometric Imaging Plate Reader; Molecular Devices, Sunnyvale, Calif.). Test compounds were first added to the cells and the resulting changes in fluorescence measured to detect receptor agonistic activity. Five minutes later the cells were challenged with vasopressin to test compounds for their antagonistic activity. Receptor antagonists inhibit the ability of vasopressin to stimulate increases in intracellular fluorescence.

human V2 receptor [4] = molecular target: T2, human V2 receptor; assay: V2 vasopressin receptor functional activity (cAMP accumulation); format: cell-based; design: expressed in transfected cells; host or cells: HEK-293; conditions: V2-HEK cells; block of vasopressin-stimulated cAMP accumulation; read-out: V2 (functional) IC50
Protocol: The V2 receptor is also a G-protein coupled receptor which when activated induces an increase in cAMP turnover. Antagonism against the V2 receptor is determined by measuring cAMP accumulation in transfected HEK-293 cells expressing the human V-2 receptor (V2-HEK cells). Compounds are tested for their ability to block the stimulatory effects of vasopressin on cAMP accumulation. The cell content of cAMP is measured by radioimmunoassay using NEN flashplates.

[5] = V1 (functional) IC50, V1a-HEK cells, inhibition of vasopressin-stimulated intracellular calcium mobilization

T2 sequence (P30518 whole entry): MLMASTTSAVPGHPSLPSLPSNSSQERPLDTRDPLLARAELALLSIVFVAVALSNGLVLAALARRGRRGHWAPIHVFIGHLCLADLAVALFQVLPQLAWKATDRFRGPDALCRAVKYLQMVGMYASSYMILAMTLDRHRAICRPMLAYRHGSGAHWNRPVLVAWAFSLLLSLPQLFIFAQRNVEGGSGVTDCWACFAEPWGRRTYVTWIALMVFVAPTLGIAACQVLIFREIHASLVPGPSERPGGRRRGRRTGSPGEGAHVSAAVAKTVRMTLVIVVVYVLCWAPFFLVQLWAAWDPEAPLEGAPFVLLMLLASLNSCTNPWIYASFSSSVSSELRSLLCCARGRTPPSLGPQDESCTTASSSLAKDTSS
T1 sequence (P37288 whole entry): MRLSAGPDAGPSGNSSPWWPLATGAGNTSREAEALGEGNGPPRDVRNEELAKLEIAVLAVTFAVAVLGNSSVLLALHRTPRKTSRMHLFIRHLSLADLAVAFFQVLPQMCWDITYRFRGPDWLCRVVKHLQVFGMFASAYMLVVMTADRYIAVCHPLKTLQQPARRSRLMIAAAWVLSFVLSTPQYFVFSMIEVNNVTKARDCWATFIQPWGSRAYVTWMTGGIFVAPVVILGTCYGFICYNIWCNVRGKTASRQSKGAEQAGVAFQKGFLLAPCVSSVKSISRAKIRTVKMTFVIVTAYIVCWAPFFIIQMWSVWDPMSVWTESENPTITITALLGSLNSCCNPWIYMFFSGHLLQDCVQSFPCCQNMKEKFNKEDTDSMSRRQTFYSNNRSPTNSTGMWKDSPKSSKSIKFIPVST

| SMILES | IC50 (human V1a receptor [1]) | inhibition at 0.2 µM (human V2 receptor [2]) | IC50 (human V1a receptor [3]) | IC50 (human V2 receptor [4]) | IC50 (human V1a receptor [3]; [5]) | inhibition at 0.2 µM (human V1a receptor [1]; test concentration of 0.2 μM, read-out: V1a binding percent inhibition (in parentheses, where an IC50 value was not obtained)) | IC50 (human V2 receptor [2]) |
| --- | --- | --- | --- | --- | --- | --- | --- |
| NCCON=C1CCCC12CCN(C(=O)c1ccc(NC(=O)c3cccc(F)c3)cc1)c1ccccc1C2 (centres unmarked) [Cpd 41, N-[4-(3-fluoro-phenylcarbonyl)amino-phenylcarbonyl]-2-(2-amino-ethoxy)imino-spiro[cyclopentane-1,4′-benzo[b]azepane]] | 8 nM | 55% | 20 nM | 700 nM | – | – | – |
| CN(C)N=C1CCCC12CCN(C(=O)c1ccc(NC(=O)c3cc(F)ccc3Cl)cc1)c1ccccc1C2 (centres unmarked) [Cpd 3, N-[4-(2-chloro-5-fluoro-phenylcarbonyl)amino-phenylcarbonyl]-2-dimethylaminoimino-spiro[cyclopentane-1,4′-benzo[b]azepane]] | 9 nM | 48% | – | 250 nM | 20 nM | – | – |
| O=C(Nc1ccc(C(=O)N2CC[C@]3(CCCC3=NO)Cc3ccccc32)cc1)c1cc(F)ccc1Cl [Cpd 45, (S)—N-[4-(2-chloro-5-fluoro-phenylcarbonyl)amino-phenylcarbonyl]-2-hydroxyimino-spiro[cyclopentane-1,4′-benzo[b]azepane]] | – | 10% | – | 550 nM | 570 nM | 67% | – |
| NC1CCCC12CCN(C(=O)c1ccc(NC(=O)c3ccccc3-c3ccccc3)cc1)c1ccccc1C2 (centres unmarked) [Cpd 39, 2-amino-N-[4-(biphen-2-ylcarbonyl)amino-phenylcarbonyl]-spiro[cyclopentane-1,4′-benzo[b]azepane]] | 80 nM | – | 730 nM | 690 nM | – | – | 110 nM |
| NCC(=O)NC1CCCC12CCN(C(=O)c1ccc(NC(=O)c3ccccc3-c3ccccc3)cc1)c1ccccc1C2 (centres unmarked) [Cpd 40, 2-(aminomethylcarbonyl)amino-N-[4-(biphen-2-ylcarbonyl)amino-phenylcarbonyl]-spiro[cyclopentane-1,4′-benzo[b]azepane]] | 23 nM | – | 290 nM | 200 nM | – | – | 15 nM |
| CN(C)C1CCCC12CCN(C(=O)c1ccc(NC(=O)c3cc(F)ccc3Cl)cc1)c1ccccc1C2 (centres unmarked) [Cpd 6, N-[4-(2-chloro-5-fluoro-phenylcarbonyl)amino-phenylcarbonyl]-2-dimethylamino-spiro[cyclopentane-1,4′-benzo[b]azepane]] | 10 nM | 63% | 70 nM | 107 nM | – | – | – |
| NN=C1CCCC12CCN(C(=O)c1ccc(NC(=O)c3cc(F)ccc3Cl)cc1)c1ccccc1C2 (centres unmarked) [Cpd 1, 2-aminoimino-N-[4-(2-chloro-5-fluoro-phenylcarbonyl)amino-phenylcarbonyl]-spiro[cyclopentane-1,4′-benzo[b]azepane]] | 3 nM | – | – | 54 nM | 10 nM | – | 23 nM |
| Cn1ccnc1C1=CCCC12CCN(C(=O)c1ccc(NC(=O)c3cc(F)ccc3Cl)cc1)c1ccccc1C2 (centres unmarked) [Cpd 5, N-[4-(2-chloro-5-fluoro-phenylcarbonyl)amino-phenylcarbonyl]-2-(1-methyl-1H-imidazol-2-yl)-spiro[cyclopent-2-ene-1,4′-benzo[b]azepane]] | 9 nM | – | 130 nM | 66 nM | – | – | 84 nM |
| NN=C1CCCC12CCN(C(=O)c1ccc(NC(=O)c3ccccc3-c3ccccc3)cc1)c1ccccc1C2 (centres unmarked) [Cpd 38, 2-aminoimino-N-[4-(biphen-2-ylcarbonyl)amino-phenylcarbonyl]-spiro[cyclopentane-1,4′-benzo[b]azepane]] | 21 nM | – | – | 40 nM | < 30 nM | – | 24 nM |
| COc1cc(C(=O)N2CCC3(CCCC3=NO)Cc3ccccc32)ccc1NC(=O)c1cc(F)ccc1Cl (centres unmarked) [Cpd 42, N-[3-methoxy-4-(2-chloro-5-fluoro-phenylcarbonyl)amino-phenylcarbonyl]-2-hydroxyimino-spiro[cyclopentane-1,4′-benzo[b]azepane]] | 12 nM | – | – | 92 nM | 60 nM | – | 39 nM |
| O=C(Nc1ccc(C(=O)N2CCC3(CCCC3=NO)Cc3ccccc32)cc1)c1ccccc1-c1ccccc1 (centres unmarked) [Cpd 37, N-[4-(biphen-2-ylcarbonyl)amino-phenylcarbonyl]-2-hydroxyimino-spiro[cyclopentane-1,4′-benzo[b]azepane]] | 23 nM | – | – | 90 nM | 30 nM | – | 27 nM |
